Test results as given in article PMC5474694, “Fragment-Sized EthR Inhibitors Exhibit Exceptionally Strong Ethionamide Boosting Effect in Whole-Cell Mycobacterium tuberculosis Assays” (ACS Chemical Biology, 2017).

What was measured:
[1] = tested on: M. tuberculosis infected murine macrophages; assay: Macrophage (intracellular) assay; format: cell-based, M. tuberculosis H37Rv-GFP in Raw264.7 macrophages; conditions: for concentrations at which intrinsic bactericidal activity against M. tuberculosis is seen: compound alone, without ethionamide; for IC50 / EC50: Mycobacterium tuberculosis, Macrophage; for IC50: in the absence of ethionamide, read-out: IC50, intrinsic bactericidal effect; for EC50: in the presence of 1/10 of the MIC of ethionamide
M. tuberculosis [2] = tested on: M. tuberculosis; set-up: method as in PMID 24313835; conditions: cited from earlier work
EthR = EthR (Mycobacterium tuberculosis, UniProt P9WMC1); assay: Isothermal titration calorimetry (ITC) binding to EthR; conditions: n = 1, one site binding model
EthR, sequence (P9WMC1 whole entry, looked up): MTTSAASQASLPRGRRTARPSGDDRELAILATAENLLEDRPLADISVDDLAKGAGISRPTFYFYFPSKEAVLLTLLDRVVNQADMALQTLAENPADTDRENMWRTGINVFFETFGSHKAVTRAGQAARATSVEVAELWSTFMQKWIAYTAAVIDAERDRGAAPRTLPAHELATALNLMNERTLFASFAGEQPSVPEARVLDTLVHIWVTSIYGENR
Experimental: Isothermal titration calorimetry (ITC)
An aqueous solution of the fragment to be tested (1 mM) was prepared containing NaCl (300 mM), Tris.HCl (20 mM, pH = 8.0), d6-DMSO (10% v/v) and glycerol (to match the 10% v/v glycerol content in the EthR stock solution). A separate aqueous solution of EthR (50 μM) containing NaCl (300 mM), Tris.HCl (20 mM, pH = 8.0) and DMSO-d6 (10% v/v) was prepared and placed in the sample cell of a MicroCal iTC200 microcalorimeter (GE Healthcare). The fragment solution was then titrated to the EthR solution over 19 or 39 injections (first injection of 0.4 μl and subsequent injections of 2.0 μL or 1.0 μL). Data was fitted to a one site binding model using Origin software.
Figure S10 ITC trace for cyclopentylmethyl pyrrolidine-1-carboxylate 2 binding to EthR.
(1 picture or pasted object on this page, not shown here)

M. tuberculosis [3] = format: cell-based, Mycobacterium tuberculosis (ATCC 27294); conditions: for MEC (minimum effective concentration) / MEC for the 10-fold boosting of ethionamide / ethionamide boosting ability in M. tuberculosis culture: in the presence of 1/10 of the MIC of ethionamide; for MEC (minimum effective concentration): mean ± standard deviation of two independent replicates; for fold improvement in MEC on the starting fragment 1: relative to fragment 1; for fold drop in potency (MEC) on addition of an extra methylene unit to the linker: 15 relative to 14, 29 relative to 28

Q: What does the source list for `O=C(CCC1CCCC1)N1CCCC1` [Compound 1]?
A: ethionamide boosting in the macrophage assay [1]: significant boosting of ethionamide; concentrations at which intrinsic bactericidal activity against M. tuberculosis is seen [1]: higher than 1 μM; MIC of ethionamide in the presence of fragment 1 (M. tuberculosis [2]; fragment 1 at a concentration of 1 μM): approximately 2 μM

Q: What does the source list for `O=C(OCC1CCCC1)N1CCCC1` [Compound 2, cyclopentylmethyl pyrrolidine-1-carboxylate]?
A: Kd (EthR): 15 µM; MEC (minimum effective concentration) (M. tuberculosis [3]): 19 ± 7.5 µM

Q: For `O=C(NCC1CCCC1)N1CCCC1` [Compound 3], which Kd (EthR) is on record?
A: Its Kd is 6 µM.

Q: What about the “MEC (minimum effective concentration)” value (M. tuberculosis [3]) of the same molecule?
A: The value was >50 µM.

Q: Which Kd (EthR) does the source give for `O=C(NCC1CCCC1)C1CCCC1` [Compound 4] here?
A: Its Kd is 11 µM.

Q: And the “MEC (minimum effective concentration)” value (M. tuberculosis [3])?
A: Its value is >50 µM.

Q: What does the source list for `O=S(=O)(CCC1CCCC1)N1CCCC1` [Compound 5]?
A: Kd (EthR): 16 µM; MEC (minimum effective concentration) (M. tuberculosis [3]): >50 µM

Q: Which Kd (EthR) does the source give for `O=S(=O)(NCC1CCCC1)N1CCCC1` [Compound 6] here?
A: Its Kd is 20 µM.

Q: What about the “MEC (minimum effective concentration)” value (M. tuberculosis [3]) of the same molecule?
A: Its value is >50 µM.

Q: For `O=C(/C=C/c1ccoc1)N1CCCC1` [Compound 7], which Kd (EthR) is on record?
A: Its Kd is 20 µM.

Q: And the “MEC (minimum effective concentration)” value (M. tuberculosis [3])?
A: Its value is >50 µM.

Q: Which Kd (EthR) does the source give for `O=C(CCc1ccoc1)N1CCCC1` [Compound 8] here?
A: The Kd was 22 µM.

Q: What about the “MEC (minimum effective concentration)” value (M. tuberculosis [3]) of the same molecule?
A: The value was >50 µM.

Q: With `O=C(NCc1ccoc1)N1CCCC1` [Compound 9] as the molecule, how does the “MEC (minimum effective concentration)” value (M. tuberculosis [3]) read?
A: Its value is >50 µM.

Q: With `O=C(NCC1CCOC1)N1CCCC1` (centres unmarked) [Compound 10] as the molecule, how does the “MEC (minimum effective concentration)” value (M. tuberculosis [3]) read?
A: Its value is >50 µM.

Q: For `O=C(C1CCCC1)N1CCCC1` [Compound 11], which “MEC (minimum effective concentration)” value (M. tuberculosis [3]) is on record?
A: Its value is > 50 µM.

Q: Which “MEC (minimum effective concentration)” value (M. tuberculosis [3]) does the source give for `O=C(CC1CCCC1)N1CCCC1` [Compound 12] here?
A: The value was 19 ± 7.5 µM.

Q: With `O=C(CCC1CCCCC1)N1CCCC1` [Compound 13] as the molecule, how does the “MEC (minimum effective concentration)” value (M. tuberculosis [3]) read?
A: The value was 0.8 ± 0.5 µM.

Q: And the “fold improvement in MEC on the starting fragment 1” value (“fold improvement in MEC” for short) (M. tuberculosis [3])?
A: The value was “approximately 4 fold”.

Q: Which “MEC for the 10-fold boosting of ethionamide” value (M. tuberculosis [3]) does the source give for `O=C(CCCC1CCCCC1)N1CCCC1` [Compound 14] here?
A: The value was 400 nM.

Q: And the “MEC (minimum effective concentration)” value (M. tuberculosis [3])?
A: Its value is 0.4 ± 0.2 µM.

Q: And the “fold improvement in MEC” value (M. tuberculosis [3])?
A: Its value is “approximately 7 fold”.

Q: What about the IC50 [1] of the same molecule?
A: Its IC50 is ~1 µM.

Q: And the EC50 [1]?
A: Its EC50 is 0.04 µM.

Q: Which “fold drop in potency (MEC) on addition of an extra methylene unit to the linker” value (M. tuberculosis [3]) does the source give for `O=C(CCCCC1CCCCC1)N1CCCC1` [Compound 15] here?
A: The value was 4 fold.

Q: And the “MEC (minimum effective concentration)” value (M. tuberculosis [3])?
A: Its value is 1.6 ± 0.8 µM.

Q: For `O=C(N1CCCC1)C12CC3CC(CC(C3)C1)C2` [Compound 16], which “MEC (minimum effective concentration)” value (M. tuberculosis [3]) is on record?
A: The value was > 50 µM.

Q: Which “fold increase in ethionamide boosting ability” value (M. tuberculosis [3]; 17 relative to the inactive amide 16) does the source give for `O=C(CC12CC3CC(CC(C3)C1)C2)N1CCCC1` [Compound 17] here?
A: The value was “over 30 fold”.

Q: What about the “MEC (minimum effective concentration)” value (M. tuberculosis [3]) of the same molecule?
A: Its value is 1.6 ± 0.8 µM.

Q: For `CCCCC(=O)N1CCCC1` [Compound 18], which “MEC (minimum effective concentration)” value (M. tuberculosis [3]) is on record?
A: Its value is > 50 µM.

Q: Which “MEC (minimum effective concentration)” value (M. tuberculosis [3]) does the source give for `CCCC(=O)N1CCCC1` [Compound 19] here?
A: Its value is > 50 µM.

Q: Which “ethionamide boosting ability in M. tuberculosis culture” value (M. tuberculosis [3]) does the source give for `O=C(OCC1CCCC1)N1CCCCC1` [Compound 20] here?
A: Its value is “loss of ethionamide boosting ability”.

Q: What about the “MEC (minimum effective concentration)” value (M. tuberculosis [3]) of the same molecule?
A: The value was > 50 µM.

Q: What does the source list for `O=C(OCC1CCCC1)N1CCCCCC1` [Compound 21]?
A: ethionamide boosting ability in M. tuberculosis culture (M. tuberculosis [3]): loss of ethionamide boosting ability; MEC (minimum effective concentration) (M. tuberculosis [3]): > 50 µM

Q: With `O=C(OCCC1CCCC1)N1CCCC1` [Compound 22] as the molecule, how does the “MEC (minimum effective concentration)” value (M. tuberculosis [3]) read?
A: The value was 1.6 ± 0.9 µM.

Q: What about the “ethionamide boosting in the macrophage assay” value [1] of the same molecule?
A: Its value is “significant boosting of ethionamide”.

Q: What about the “concentrations at which intrinsic bactericidal activity against M. tuberculosis is seen” value [1] of the same molecule?
A: Its value is “higher than 1 μM”.

Q: Which results are given for `O=C(OCC1CC1)N1CCCC1` [Compound 23]?
A: MEC (minimum effective concentration) (M. tuberculosis [3]): 3.1 ± 1.8 µM; ethionamide boosting in the macrophage assay [1]: significant boosting of ethionamide

Q: Which “MEC (minimum effective concentration)” value (M. tuberculosis [3]) does the source give for `O=C(OCC1CCC1)N1CCCC1` [Compound 24] here?
A: The value was 3.1 ± 1.8 µM.

Q: For `O=C(OCC1CCCCC1)N1CCCC1` [Compound 25], which “MEC (minimum effective concentration)” value (M. tuberculosis [3]) is on record?
A: The value was 1.6 ± 0.9 µM.

Q: What about the “ethionamide boosting in the macrophage assay” value [1] of the same molecule?
A: The value was “significant boosting of ethionamide”.

Q: What about the “concentrations at which intrinsic bactericidal activity against M. tuberculosis is seen” value [1] of the same molecule?
A: Its value is “higher than 1 μM”.

Q: Which “MEC (minimum effective concentration)” value (M. tuberculosis [3]) does the source give for `CN(C)C(=O)OCC1CCCC1` [Compound 26] here?
A: Its value is 6.3 ± 3.6 µM.

Q: With `O=C(OCC1CCCC1)N1CCC1` [Compound 27] as the molecule, how does the “MEC (minimum effective concentration)” value (M. tuberculosis [3]) read?
A: The value was 13 ± 7.2 µM.

Q: With `O=C(OCCCC1CCCC1)N1CCCC1` [Compound 28] as the molecule, how does the “MEC for the 10-fold boosting of ethionamide” value (M. tuberculosis [3]) read?
A: Its value is 400 nM.

Q: What about the “MEC (minimum effective concentration)” value (M. tuberculosis [3]) of the same molecule?
A: Its value is 0.4 ± 0.2 µM.

Q: What about the “fold improvement in MEC” value (M. tuberculosis [3]) of the same molecule?
A: The value was “roughly 7 fold”.

Q: And the IC50 [1]?
A: The IC50 was ~1 µM.

Q: What about the EC50 [1] of the same molecule?
A: Its EC50 is 0.05 µM.

Q: For `O=C(OCCCCC1CCCCC1)N1CCCC1` [Compound 29], which “fold drop in potency (MEC) on addition of an extra methylene unit to the linker” value (M. tuberculosis [3]) is on record?
A: The value was “roughly 16 fold”.

Q: And the “MEC (minimum effective concentration)” value (M. tuberculosis [3])?
A: The value was 6.3 ± 3.6 µM.

Q: Which “MEC (minimum effective concentration)” value (M. tuberculosis [3]) does the source give for `CC(C)(C)OC(=O)N1CCCC1` [Compound 30, Boc-pyrrolidine] here?
A: The value was > 50 µM.

Q: Which MIC of ethionamide (M. tuberculosis [2]; ethionamide alone) does the source give for `CCc1cc(C(N)=S)ccn1` [ethionamide] here?
A: The MIC of ethionamide was 15 µM.
